Measured values from the supplement of paper PMC10307832.

What was measured:
Test in all cases: relative viability (nuclei count vs DMSO), 5 days (fraction); higher = more cells survive
CAL-12T = system: CAL-12T
Outline: (§1)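 Cells from lung cancer lines were seeded into 1536-well plates and, one day later, dosed by pin tool. Treatments were either a single drug or a fixed dose of an anchor drug with five library-drug doses (not always all listed) in √10 steps. After 5 days, nuclei were stained in a one-step fixation (final 0.05% Triton X-100, 1% formaldehyde, 1 ug/ml Hoechst) and counted on 4× images, and relative viability is the treated-to-vehicle nuclei ratio, as the median of duplicate plates.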

NCI-H1650 = system: NCI-H1650
Outline: as §1

A549 = system: A549
Outline: as §1

IA-LM = system: IA-LM
Outline: as §1

A-427 = system: A-427
Outline: as §1

NCI-H1299 = system: NCI-H1299
Outline: as §1

NCI-H1703 = system: NCI-H1703
Outline: as §1

LK-2 = system: LK-2
Outline: as §1

Calu-6 = system: Calu-6
Outline: as §1

NCI-H1734 = system: NCI-H1734
Outline: as §1

UMC-11 = system: UMC-11
Outline: as §1

NCI-H2009 = system: NCI-H2009
Outline: as §1

EBC-1 = system: EBC-1
Outline: as §1

Cc1sc2c(c1C)C(c1ccc(Cl)cc1)=N[C@@H](CC(=O)OC(C)(C)C)c1nnc(C)n1-2 [JQ1] + CC1(C)CCC(c2ccc(Cl)cc2)=C(CN2CCN(c3ccc(C(=O)NS(=O)(=O)c4ccc(N[C@H](CCN5CCOCC5)CSc5ccccc5)c(S(=O)(=O)C(F)(F)F)c4)cc3)CC2)C1 [Navitoclax] (partner 0.5 µM)
relative viability (CAL-12T; first compound 0.04 µM): 1.12 | relative viability (CAL-12T; first compound 0.1265 µM): 1.29 | relative viability (CAL-12T; first compound 0.4 µM): 0.701 | relative viability (CAL-12T; first compound 1.265 µM): 0.295 | relative viability (CAL-12T; first compound 4 µM): 0.408 | relative viability (NCI-H1650; first compound 0.04 µM): 1.09 | relative viability (NCI-H1650; first compound 0.1265 µM): 0.998 | relative viability (NCI-H1650; first compound 0.4 µM): 0.655 | relative viability (NCI-H1650; first compound 1.265 µM): 0.24 | relative viability (NCI-H1650; first compound 4 µM): 0.169 | relative viability (A549; first compound 0.04 µM): 1.27 | relative viability (A549; first compound 0.1265 µM): 1.06 | relative viability (A549; first compound 0.4 µM): 1.13 | relative viability (A549; first compound 1.265 µM): 0.702 | relative viability (A549; first compound 4 µM): 0.313 | relative viability (IA-LM; first compound 0.04 µM): 0.745 | relative viability (IA-LM; first compound 0.1265 µM): 0.294 | relative viability (IA-LM; first compound 0.4 µM): 0.126 | relative viability (IA-LM; first compound 1.265 µM): 0.0769 | relative viability (IA-LM; first compound 4 µM): 0.0558 | relative viability (A-427; first compound 0.04 µM): 0.997 | relative viability (A-427; first compound 0.1265 µM): 0.974 | relative viability (A-427; first compound 0.4 µM): 1 | relative viability (A-427; first compound 1.265 µM): 0.854 | relative viability (A-427; first compound 4 µM): 0.784 | relative viability (NCI-H1299; first compound 0.04 µM): 1.02 | relative viability (NCI-H1299; first compound 0.1265 µM): 0.92 | relative viability (NCI-H1299; first compound 0.4 µM): 0.933 | relative viability (NCI-H1299; first compound 1.265 µM): 0.591 | relative viability (NCI-H1299; first compound 4 µM): 0.419 | relative viability (NCI-H1703; first compound 0.04 µM): 1.27 | relative viability (NCI-H1703; first compound 0.1265 µM): 0.637 | relative viability (NCI-H1703; first compound 0.4 µM): 0.928 | relative viability (NCI-H1703; first compound 1.265 µM): 0.405 | relative viability (NCI-H1703; first compound 4 µM): 0.309 | relative viability (LK-2; first compound 0.04 µM): 0.89 | relative viability (LK-2; first compound 0.1265 µM): 0.785 | relative viability (LK-2; first compound 0.4 µM): 0.562 | relative viability (LK-2; first compound 1.265 µM): 0.255 | relative viability (LK-2; first compound 4 µM): 0.243 | relative viability (Calu-6; first compound 0.04 µM): 0.821 | relative viability (Calu-6; first compound 0.1265 µM): 0.757 | relative viability (Calu-6; first compound 0.4 µM): 0.792 | relative viability (Calu-6; first compound 1.265 µM): 0.481 | relative viability (Calu-6; first compound 4 µM): 0.309 | relative viability (NCI-H1734; first compound 0.04 µM): 0.849 | relative viability (NCI-H1734; first compound 0.1265 µM): 0.825 | relative viability (NCI-H1734; first compound 0.4 µM): 0.83 | relative viability (NCI-H1734; first compound 1.265 µM): 0.407 | relative viability (NCI-H1734; first compound 4 µM): 0.233 | relative viability (UMC-11; first compound 0.04 µM): 0.266 | relative viability (UMC-11; first compound 0.1265 µM): 0.292 | relative viability (UMC-11; first compound 0.4 µM): 0.205 | relative viability (UMC-11; first compound 1.265 µM): 0.134 | relative viability (UMC-11; first compound 4 µM): 0.142 | relative viability (NCI-H2009; first compound 0.04 µM): 1.2 | relative viability (NCI-H2009; first compound 0.1265 µM): 0.938 | relative viability (NCI-H2009; first compound 0.4 µM): 0.837 | relative viability (NCI-H2009; first compound 1.265 µM): 0.359 | relative viability (NCI-H2009; first compound 4 µM): 0.388 | relative viability (EBC-1; first compound 0.04 µM): 0.389 | relative viability (EBC-1; first compound 0.1265 µM): 0.165 | relative viability (EBC-1; first compound 0.4 µM): 0.174 | relative viability (EBC-1; first compound 1.265 µM): 0.136 | relative viability (EBC-1; first compound 4 µM): 0.125

Cc1sc2c(c1C)C(c1ccc(Cl)cc1)=N[C@@H](CC(=O)OC(C)(C)C)c1nnc(C)n1-2 [JQ1] + C[C@@H](Oc1cc(-c2cnn(C3CCNCC3)c2)cnc1N)c1c(Cl)ccc(F)c1Cl [Crizotinib] (partner 1 µM)
relative viability (CAL-12T; first compound 0.04 µM): 0.528 | relative viability (CAL-12T; first compound 0.1265 µM): 0.316 | relative viability (CAL-12T; first compound 0.4 µM): 0.316 | relative viability (CAL-12T; first compound 1.265 µM): 0.133 | relative viability (CAL-12T; first compound 4 µM): 0.103 | relative viability (NCI-H1650; first compound 0.04 µM): 0.948 | relative viability (NCI-H1650; first compound 0.1265 µM): 0.609 | relative viability (NCI-H1650; first compound 0.4 µM): 0.735 | relative viability (NCI-H1650; first compound 1.265 µM): 0.126 | relative viability (NCI-H1650; first compound 4 µM): 0.141 | relative viability (A549; first compound 0.04 µM): 0.766 | relative viability (A549; first compound 0.1265 µM): 0.521 | relative viability (A549; first compound 0.4 µM): 0.558 | relative viability (A549; first compound 1.265 µM): 0.233 | relative viability (A549; first compound 4 µM): 0.125 | relative viability (IA-LM; first compound 0.04 µM): 0.672 | relative viability (IA-LM; first compound 0.1265 µM): 0.3 | relative viability (IA-LM; first compound 0.4 µM): 0.147 | relative viability (IA-LM; first compound 1.265 µM): 0.101 | relative viability (IA-LM; first compound 4 µM): 0.108 | relative viability (A-427; first compound 0.04 µM): 0.997 | relative viability (A-427; first compound 0.1265 µM): 0.947 | relative viability (A-427; first compound 0.4 µM): 0.658 | relative viability (A-427; first compound 1.265 µM): 0.691 | relative viability (A-427; first compound 4 µM): 0.516 | relative viability (NCI-H1299; first compound 0.04 µM): 0.932 | relative viability (NCI-H1299; first compound 0.1265 µM): 0.768 | relative viability (NCI-H1299; first compound 0.4 µM): 0.707 | relative viability (NCI-H1299; first compound 1.265 µM): 0.352 | relative viability (NCI-H1299; first compound 4 µM): 0.279 | relative viability (NCI-H1703; first compound 0.04 µM): 0.611 | relative viability (NCI-H1703; first compound 0.1265 µM): 0.438 | relative viability (NCI-H1703; first compound 0.4 µM): 0.464 | relative viability (NCI-H1703; first compound 1.265 µM): 0.286 | relative viability (NCI-H1703; first compound 4 µM): 0.302 | relative viability (LK-2; first compound 0.04 µM): 0.208 | relative viability (LK-2; first compound 0.1265 µM): 0.224 | relative viability (LK-2; first compound 0.4 µM): 0.212 | relative viability (LK-2; first compound 1.265 µM): 0.232 | relative viability (LK-2; first compound 4 µM): 0.198 | relative viability (Calu-6; first compound 0.04 µM): 0.737 | relative viability (Calu-6; first compound 0.1265 µM): 0.546 | relative viability (Calu-6; first compound 0.4 µM): 0.62 | relative viability (Calu-6; first compound 1.265 µM): 0.342 | relative viability (Calu-6; first compound 4 µM): 0.183 | relative viability (NCI-H1734; first compound 0.04 µM): 0.696 | relative viability (NCI-H1734; first compound 0.1265 µM): 0.659 | relative viability (NCI-H1734; first compound 0.4 µM): 0.569 | relative viability (NCI-H1734; first compound 1.265 µM): 0.449 | relative viability (NCI-H1734; first compound 4 µM): 0.331 | relative viability (UMC-11; first compound 0.04 µM): 0.501 | relative viability (UMC-11; first compound 0.1265 µM): 0.659 | relative viability (UMC-11; first compound 0.4 µM): 0.345 | relative viability (UMC-11; first compound 1.265 µM): 0.0933 | relative viability (UMC-11; first compound 4 µM): 0.0983 | relative viability (NCI-H2009; first compound 0.04 µM): 0.969 | relative viability (NCI-H2009; first compound 0.1265 µM): 0.627 | relative viability (NCI-H2009; first compound 0.4 µM): 0.572 | relative viability (NCI-H2009; first compound 1.265 µM): 0.301 | relative viability (NCI-H2009; first compound 4 µM): 0.211 | relative viability (EBC-1; first compound 0.04 µM): 0.214 | relative viability (EBC-1; first compound 0.1265 µM): 0.187 | relative viability (EBC-1; first compound 0.4 µM): 0.154 | relative viability (EBC-1; first compound 1.265 µM): 0.105 | relative viability (EBC-1; first compound 4 µM): 0.13
